The record followed here is ChEMBL document CHEMBL1157539, “Thousands of chemical starting points for antimalarial lead identification” (Nature, 2010).

The experiment concerns Plasmodium falciparum. The experiment is described as follows: GSK_TCMDC: Inhibition of Plasmodium falciparum 3D7 in whole erythrocytes, using parasite LDH activity as an index of growth. Format: functional, organism-based. Particulars: Plasmodium falciparum, 3D7.

In turn, `Cc1cc(NC(=O)CCN2CCN(c3cccc(Cl)c3Cl)CC2)ccc1N1CCN(C(C)C)CC1` returned an XC50 of 847 nM.

For the molecule `COc1ccc(CCN(C)CCCN2CCC(NC(=O)c3cccc4c(=O)c5ccccc5[nH]c34)CC2)cc1OC`, the XC50 was determined as 695 nM.

Molecule `CC(=O)NCCNCc1cccc(C(=O)NCc2cccc(C(F)(F)F)c2)c1` registered an XC50 of 1080 nM.

As to `O=[N+]([O-])c1ccc(N/C(=N\c2ccccc2Br)NCCOc2ccccc2)c(O)c1`, the XC50 was 1050 nM.

Molecule `CC(=O)Nc1ccccc1OCc1cc2cc(C(=O)N3CCC(N4C(=O)OCc5ccccc54)CC3)ccc2o1` gave an XC50 of 236 nM.

`Cc1oc(-c2cccc(Oc3ccccc3)c2)nc1CN(Cc1cnn(C)c1)C(C)C` had an XC50 of 1090 nM.

Regarding `O=C(Cn1c(CCc2cccc(F)c2F)cc(=O)c2ccccc21)N(Cc1ccc(-c2ccc(C(F)(F)F)cc2)cc1)C1CCN(CCN2CCOCC2)CC1`, the XC50 turned out to be 720 nM.

Regarding `O=C(Cc1cccc(O)c1)Nc1ccc(-c2cccc(-c3nc4cc(C(F)(F)F)ccc4[nH]3)c2)cc1`, the XC50 turned out to be 983 nM.

In the case of `COc1cc(NC(=O)/C=C/c2cc(F)cc(F)c2F)cc(OCCN2CCC(O)(c3ccccc3)CC2)c1`, the XC50 is 166 nM.

As to `Cc1cc(C)cc(-n2c(C)cc(/C=C3\SC(=Nc4ccc(Cl)cc4)NC3=O)c2C)c1`, the XC50 turned out to be 65.8 nM.

As to `FC(F)(F)c1ccc2[nH]ccc(=NN=Cc3ccccc3Cl)c2c1`, the XC50 is 799 nM.

In turn, `CCN1CCCC1CN(Cc1ccc(-c2ccc(C(F)(F)F)cc2)cc1)C(=O)Cn1c(CCc2cccc(F)c2F)nc(=O)c2ccccc21` (centres undefined) yielded an XC50 of 1590 nM.

`CN(C)S(=O)(=O)c1cc(-c2ccc3nccc(-c4cccc(S(N)(=O)=O)c4)c3c2)cnc1N` came in with an XC50 of 251 nM.

The molecule `O=C(NCCCCN1CCC(c2ccc3c(c2OCc2ccncc2)CCCC3)CC1)c1ccc(NC(=O)c2ccc(Cl)cc2)cc1` returned an XC50 of 218 nM.

Turning to `CN1CCN(c2ccnc3ccc(NC(=O)Nc4cccc5ccccc45)cc23)CC1`, the XC50 worked out at 488 nM.

`c1ccc2c(NCCCCCCNc3c4c(nc5ccccc35)CCCC4)c3c(nc2c1)CCCC3`: the XC50 was determined as 196 nM.

The molecule `CN1CCCN(c2ccnc3cc4c(cc23)N(C(=O)c2ccc(Cl)cc2Cl)CC4)CC1` gave an XC50 of 812 nM.

The molecule `COc1ccc2ncc(F)c(CCN3CC(O)C(CNCc4ccc5ccccc5c4)C3)c2n1` (centres undefined) had an XC50 of 501 nM.

Molecule `Cc1cccc(-n2nc(C)c3c2NC(=O)CC3C(=O)c2ccc(Cl)s2)c1` (centres undefined) registered an XC50 of 466 nM.

As for `Cc1[nH]c(C)c(-c2ccc(CCc3ccc(F)cc3F)cc2)c(=O)c1Br`, the XC50 was 5.29 nM.

The molecule `COc1cc2nc(N3CCC(CNC(=O)c4ccc(-c5ccc(C(=O)N(C)C)cc5C)cc4)CC3)nc(N3CCN(C)CC3)c2cc1OC` showed an XC50 of 1230 nM.

`O=C(Nc1cccc(CN2CCCN(Cc3ccsc3)CC2)c1)c1cc2ccccc2s1` gave an XC50 of 758 nM.

Molecule `C[C@H](Cc1ccc(S(=O)(=O)c2ccc(C[C@@H](C)NC[C@H](O)c3cccc(Cl)c3)cc2)cc1)NC[C@H](O)c1cccc(Cl)c1` returned an XC50 of 258 nM.

Molecule `Cc1cc(F)ccc1Nc1nc(N(C)c2ccccc2)c2cccc(O)c2n1` returned an XC50 of 957 nM.

With `CCc1nc2c(N)nc(N)nc2nc1-c1ccc(OC)cc1`, the XC50 is 1200 nM.

For the molecule `CCc1cccc(-c2cc(N)n(C)c3nc(N)nc(=O)c2-3)c1`, the XC50 amounted to 1120 nM.

In turn, `CNCCNCc1ccc(-c2cccc(-c3nc4cc(C(F)(F)F)ccc4[nH]3)c2)cc1` came in with an XC50 of 628 nM.

In turn, `CCCOC(=O)C1=C(C)NC2=C(C(=O)CC(c3ccc(OC)c(OC)c3)C2)C1c1cccc(O)c1` (centres undefined) displayed an XC50 of 121 nM.

Molecule `O=C(/C=C/c1ccc(Cl)c(Cl)c1)N1CCN(C(=O)Nc2ccc(F)c(Cl)c2)CC1` displayed an XC50 of 724 nM.

Molecule `Cc1ccc(Cl)c2sc(N3CCN(C(=O)c4ccc([N+](=O)[O-])o4)CC3)nc12` had an XC50 of 325 nM.

With `COc1cccc([C@@H](CC(=O)Nc2cc(C(F)(F)F)ccc2OC)Nc2ccc(C#N)c3ccccc23)c1`, the XC50 was 993 nM.

Regarding `COc1ccc(-c2ccc3c(-c4cccc(S(C)(=O)=O)c4)cnc(N)c3c2)cc1`, the XC50 is 1330 nM.

Consider `c1ccc(-c2ccc(CNCc3ccc(-c4cccc(-c5nc6ccccc6[nH]5)c4)cc3)s2)nc1`, for which the XC50 is 396 nM.

For the molecule `Cc1[nH]c(C)c(-c2ccc(-c3cccc(OC(F)(F)F)c3)nc2)c(=O)c1Cl`, the XC50 amounted to 74.5 nM.

In turn, `COc1ccc(CNC2CCN(C)CC2)cc1-c1ccc(OC)c(S(=O)(=O)NCc2ccccc2)c1` came in with an XC50 of 951 nM.

With `Nc1ncnc2cc(-c3cccc(S(N)(=O)=O)c3)sc12`, the XC50 is 151 nM.

For the molecule `CC(C)C[C@H](NC(=O)c1ccc(OCCN2CCOCC2)cc1)C(=O)N[C@H](/C=N/NC(=O)c1ccccc1)CCc1ccccc1`, the XC50 came out at 62.1 nM.

Take `COc1ccccc1NC(=O)CSc1nc2cccnc2n1-c1ccccc1OC`: the XC50 was determined as 362 nM.

As to `CCCCCC(C)N/C(=N/c1cccc(Cl)c1Cl)Nc1ccc(C#N)cc1O` (centres undefined), the XC50 came out at 805 nM.

`O=C(Nc1ccc(Oc2ccccc2)cc1)N(Cc1ccc(-c2ccc(CN3CCNCC3)cc2)cc1)C1CCN(Cc2ccccc2)CC1`: the XC50 was 886 nM.

In turn, `Cc1ccc(C2CCN(CCCCNC(=O)c3ccc(-c4ccc(C(F)(F)F)cc4)cc3)CC2)c(O)c1` showed an XC50 of 128 nM.

`Cc1cccc2nc(-c3ccc(-c4ccc(CN5CCC(CCN6CCCCC6)CC5)cc4)cc3)[nH]c12` showed an XC50 of 144 nM.

As for `CN1CCCN(c2ccnc3cc4c(cc23)N(C(=O)c2ccc(Cl)c(Cl)c2)CC4)CC1`, the XC50 was found to be 870 nM.

In turn, `COc1cccc(C=NN=c2cc(C)[nH]c3ccccc23)c1` gave an XC50 of 937 nM.

Molecule `COc1ccc(-c2cccc(NC(=O)c3cccs3)c2)cc1CN1CCCN(C)CC1` yielded an XC50 of 698 nM.

`O=C(/C=C/c1ccc(Cl)c(Cl)c1)NC1CCC(CN2CCC(c3c[nH]c4ccccc34)C(O)C2)CC1` (centres undefined) showed an XC50 of 719 nM.

As for `NC12CC3CC(CC(C3)C1)C2` [AMANTADINE], the XC50 was 164 nM.

In turn, `COc1cc2nccc(Nc3cc(C)cc(O)c3)c2cc1OC` had an XC50 of 905 nM.

As to `CC(C)N1CCC(N(Cc2ccc(-c3ccc(C(F)(F)F)cc3)cc2)C(=O)Cn2c(CCc3cccc(F)c3F)nc(=O)c3cccnc32)CC1`, the XC50 amounted to 642 nM.

In the case of `COc1cc(Cc2cnc(N)nc2N)cc(OCCCCCCN)c1OC`, the XC50 is 190 nM.

The molecule `CCCC1N=C(N)N=C(N)N1c1ccc(C)cc1` (centres undefined) had an XC50 of 95.2 nM.

In the case of `Brc1ccccc1CNc1ccnc(NCCn2ccnc2)n1`, the XC50 turned out to be 900 nM.

Take `CC(C)c1ccc(N(CC(=O)N/N=C/c2ccc(C(F)(F)F)cc2)S(=O)(=O)c2ccc(C(F)(F)F)cc2)cc1`: the XC50 is 846 nM.

In turn, `CC(C)N1CCCN(C(=O)C2CCN(c3ccc(C(=O)N4CCCC4)cn3)CC2)CC1` displayed an XC50 of 1060 nM.

Molecule `N#Cc1ccc2c(c1)CCN(CCC1CCC(NC(=O)/C=C/c3nc4ccccc4s3)CC1)CC2` (centres undefined) displayed an XC50 of 829 nM.

`COc1cc2c(c(OC)c1OC)C[C@H]1c3c(cc4c(c3-2)OCO4)CCN1C` registered an XC50 of 969 nM.

Molecule `CCOC(=O)c1ccc(NC(=O)Nc2cccc(-c3cccc(-c4nc5cc(F)ccc5[nH]4)c3)c2)cc1` came in with an XC50 of 94.7 nM.

`Cc1cc(F)ccc1[C@H]1CNCCN1C(=O)N(C)C(C)(C)c1cc(C(F)(F)F)cc(C(F)(F)F)c1` displayed an XC50 of 594 nM.

Molecule `CN1CC=C(c2c[nH]c3ccc(Br)cc23)CC1` registered an XC50 of 1190 nM.

Molecule `COc1ccccc1CNC(=O)c1cc(OC)c(OC)cc1NC(=O)c1cccs1` displayed an XC50 of 1440 nM.

In turn, `CCCc1cccc(OC)c1OCCCON1C(N)=NC(N)=NC1(C)C` yielded an XC50 of 3.2 nM.

Regarding `Oc1ccc(Nc2nc(NCC3CCCO3)c3ccccc3n2)cc1` (centres undefined), the XC50 turned out to be 806 nM.

In turn, `O=C(NCC(NCCCNc1cc(=O)c2ccccc2[nH]1)c1cc(Br)cc(Br)c1)C1=CCCC1` (centres undefined) registered an XC50 of 901 nM.

In turn, `Cn1nc(-c2ccc(NC(=O)Nc3ccc4ccccc4c3)c(F)c2)c2cnc(NCCN3CCOCC3)nc21` had an XC50 of 1020 nM.

In turn, `CN(c1cc(NC(=O)c2ccc(F)cc2)ccn1)C1CCN(Cc2ccc(C#N)cc2)CC1` registered an XC50 of 1510 nM.

`O=C(CSc1nnc(-c2ccccc2Br)[nH]1)c1c[nH]c2ccccc12` showed an XC50 of 982 nM.

On to `CCCCc1ccc(NC(=O)Nc2cccc(CCNCc3ccccc3)c2)cc1`, for which the XC50 amounted to 881 nM.

Molecule `CCOc1ccc(NC(=O)c2cccc(CN3CCCN(Cc4cccc(O)c4)CC3)c2)cc1` registered an XC50 of 1080 nM.

In the case of `CN(C)CCc1coc2ccc(C(=O)Nc3ccc(-c4ccc(O)cc4)cc3)cc12`, the XC50 is 1080 nM.

Consider `CC(C)(C)c1ccc(NC(=O)c2cccc(CN3CCN(Cc4cccc(O)c4)CC3)c2)cc1`, for which the XC50 turned out to be 1400 nM.

Consider `CC(C)(C)NCCN(Cc1ccc(-c2ccc(C(F)(F)F)cc2)cc1)C(=O)Cn1c(SCc2ccc(F)cc2)nc(=O)c2c1CCC2`, for which the XC50 came to 860 nM.

`CC(NC(=O)c1ccc(O)c(-c2ccc(Cl)c(Cl)c2)c1)C(=O)NCCN1CCCC1` (centres undefined) had an XC50 of 759 nM.

Regarding `COc1ccc2c(Nc3ccc(N4CCN(C)CC4)cc3)cc(C)nc2c1`, the XC50 was 719 nM.

Consider `C=CCc1ccccc1OCC(O)CN(C1CCCCC1)C1CCCCC1` (centres undefined), for which the XC50 amounted to 814 nM.

Regarding `O=[N+]([O-])c1cccc(CNCC2CCC(CNCc3cccc([N+](=O)[O-])c3)CC2)c1` (centres undefined), the XC50 amounted to 138 nM.

Consider `COc1cc(CCNc2nc(NCc3ccccc3-c3ccccc3)nc(N3CCC(N)CC3)n2)ccc1O`, for which the XC50 was 817 nM.

In turn, `CC[C@H]1CN2CC[C@H]1C[C@H]2[C@H](O)c1cc(/C=C/c2ccc(F)cc2)nc2ccc(OC)cc12` had an XC50 of 28.1 nM.

With `C[C@H](NC(=O)C1CCCC1)C(=O)Nc1ccc(-c2ccc(-c3nc4cc(C(F)(F)F)ccc4[nH]3)cc2)cc1`, the XC50 came to 272 nM.

`CCc1ccc(NC(=O)C=NNC(=N)N)cc1` gave an XC50 of 902 nM.

Regarding `CCN(CC)CCN(Cc1ccc(-c2ccc(C(F)(F)F)cc2)cc1)C(=O)Cn1c(CCc2cc(F)c(F)c(F)c2)nc(=O)c2ccccc21`, the XC50 stood at 827 nM.

In turn, `CCN(CC)CCN1C(=O)c2oc3ccc(Cl)cc3c(=O)c2C1c1ccc(SC)cc1` (centres undefined) displayed an XC50 of 1060 nM.

`CCN(CC)c1cc(C)c2cc(NC(=O)c3cc(=O)c4ccccc4o3)ccc2n1` yielded an XC50 of 224 nM.

In the case of `O=C(Nc1ccc(Cl)cc1)Nc1cccc(-c2ccc(-c3nc4cc(F)ccc4[nH]3)cc2)c1`, the XC50 amounted to 47.5 nM.

With `Cc1ccc(C(=O)Nc2ccc(Cl)c(N3CCN(CCc4ccccc4)CC3)c2)cc1`, the XC50 was 926 nM.
